The target in this assay is T1, Recombinant truncated stromelysin (human sequence) (Homo sapiens, UniProt P08254).
T1 construct: made in house; host or cells: E. coli
In words: Determination of stromelysin inhibition (cleavage of thiopeptide ester substrate, DTNB colour read at 405 nm). In kind it is biochemical. Particulars: substrate Ac-Pro-Leu-Gly-[2-mercapto-4-methylpentanoyl]-Leu-Gly-OEt; 30 minute assay at ambient temperature; 50 mM MES/NaOH pH 6.5 with 10 mM CaCl2 and 0.2% Pluronic F-68. Here is the method:
The efficacy of the compounds of this invention as matrix metalloproteinase inhibitors was determined by measuring the inhibition of stromelysin. The inhibition of stromelysin by the compounds of this invention was determined as follows: Recombinant truncated stromelysin (human sequence) produced in E. coli was prepared by expression and purification of the protein as described by Ye et al. (Biochemistry, 1992, 31, 11231-11235, which is incorporated herein by reference). The enzyme was assayed by its cleavage of the thiopeptide ester substrate Ac-Pro-Leu-Gly-[2-mercapto-4-methylpentanoyl]-Leu-Gly-OEt as described by Weingarten and Feder (Anal. Biochem., 1985, 147, 437-440 (1985), which is incorporated herein by reference) as a substrate of vertebrate collagenase. The reported conditions were modified to allow assays to be carried out in a microtiter plate. Upon hydrolysis of the thioester bond, the released thiol group reacted rapidly with 5,5'-dithio-bis(2-nitrobenzoic acid) (DTNB) to produce a yellow color which was measured by a microtiter plate reader set at 405 nm. The rates of cleavage of the substrate by stromelysin in the presence or absence of inhibitors were measured in a 30 minute assay at ambient temperature. Solutions of the compounds in DMSO were prepared, and these were diluted at various concentrations into the assay buffer (50 mM MES/NaOH pH 6.5 with 10 mM CaCl2 and 0.2% Pluronic F-68), which was also used for dilution of the enzyme and substrate. The potency of the compounds [IC50] was calculated from the inhibition/inhibitor concentration data.

Usually IC50 stands for the concentration that gives 50% inhibition.

T1 sequence (P08254 100-272 limits assumed): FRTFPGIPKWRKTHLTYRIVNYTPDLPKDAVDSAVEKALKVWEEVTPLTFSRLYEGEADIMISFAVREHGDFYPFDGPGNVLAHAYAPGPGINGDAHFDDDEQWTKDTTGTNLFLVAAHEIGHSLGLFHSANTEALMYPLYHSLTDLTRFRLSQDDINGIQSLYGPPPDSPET

Take `N#Cc1ccc(-c2ccc(OCC(CSc3ccccc3)N(O)C=O)cc2)cc1` (racemic) [Example 2, (±)-N-[1-[[(4'-cyano-[1,1'-biphenyl]-4-yl)oxy]methyl]-2-(phenylthio)ethyl]-N-hydroxyformamide]: the concentration for half-maximal inhibition (IC50) is 36 nM. The result for `N#Cc1ccc(-c2ccc(OCCN(O)C=O)cc2)cc1` [Example 15] reads 620 nM.

On to `CC(COc1ccc(-c2ccc(C#N)cc2)cc1)N(O)C=O` (racemic) [Example 13, (±)-N-[1-[[(4'-cyano-[1,1'-biphenyl]-4-yl)oxy]methyl]ethyl]-N-hydroxyformamide], for which the IC50 worked out at 310 nM.

Take `N#Cc1ccc(-c2ccc(OCC(CN3C(=O)c4ccccc4C3=O)N(O)C=O)cc2)cc1` (racemic) [Example 3, (±)-N-[1-[[(4'-cyano-[1,1'-biphenyl]-4-yl)oxy]methyl]-2-(2,3-dihydro-1,3-dioxo-1H-isoindol-2-yl)ethyl]-N-hydroxyformamide]: the IC50 came to 21 nM. In the case of `CCCCC(COc1ccc(-c2cccc(CC#N)c2)cc1)N(O)C=O` (racemic) [Example 6, (±)-N-[1-[[[3'-(cyanomethyl)-[1,1'-biphenyl]-4-yl]oxy]methyl]pentyl]-N-hydroxyformamide], the IC50 came out at 30 nM. The figure for `N#Cc1ccc(-c2ccc(OCC(c3ccc(F)cc3)N(O)C=O)cc2)cc1` (racemic) [Example 11, (±)-N-[2-[(4'-cyano-[1,1'-biphenyl]-4-yl)oxy]-1-(4-fluorophenyl)ethyl)-N-hydroxyformamide] is 300 nM; for `Cc1ccc(CC(COc2ccc(-c3ccc(C#N)cc3)cc2)N(O)C=O)cc1` (racemic) [Example 10, (±)-N-[1-[[(4'-cyano-[1,1'-biphenyl]-4-yl)oxy]methyl]-2-(4-methylphenyl)ethyl]-N-hydroxyformamide] it is 1500 nM; for `CCCCC(COc1ccc(-c2ccc(C#N)cc2)cc1)N(O)C=O` (racemic) [Example 9, (±)-N-[1-[[(4'-cyano-[1,1'-biphenyl]-4-yl)oxy]methyl]pentyl]-N-hydroxyformamide] it is 100 nM. `CCC(C)C(COc1ccc(-c2ccc(C#N)cc2)cc1)N(O)C=O` (racemic) [Example 8, (± )-N-[1-[[(4'-cyano-[1,1'-biphenyl]-4-yl)oxy]methyl]-2-methylbutyl]-N-hydroxyformamide]: the half-maximal inhibitory concentration (IC50) stood at 170 nM. The result for `N#Cc1ccc(-c2ccc(OCC(COc3ccccc3)N(O)C=O)cc2)cc1` (racemic) [Example 1, (±)-N-[1-[[(4'-cyano-[1,1'-biphenyl]-4-yl)oxy]methyl]-2-phenoxyethyl]-N-hydroxyformamide] reads 130 nM.

As to `N#Cc1ccc(-c2ccc(OCC(Cc3ccc(F)cc3)N(O)C=O)cc2)cc1` (racemic) [Example 12, (±)-N-[1-[[(4'-cyano-[1,1'-biphenyl]-4-yl)oxy]methyl]-2-(4-fluorophenyl)ethyl]-N-hydroxyformamide], the half-maximal inhibitory concentration (IC50) came to 180 nM.

For the compound `CC(=O)N(O)CCOc1ccc(-c2ccc(C#N)cc2)cc1` [Example 14, N-[2-[(4'-cyano-[1,1'-biphenyl]-4-yl)oxy]ethyl]-N-hydroxyacetamide], the IC50 turned out to be 4000 nM.
